Test results as given in PubChem BioAssay (NCI).
Values joined by “and” are separate entries in the source; they are usually repeats but may differ in a detail not shown here. Identical values can stand only once.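 Grown in 96-well plates, cells were treated for 48 hours with each compound at five concentrations. Insufficient inhibition: endpoint recorded as highest concentration tested. Here, GI50 denotes the concentration required for 50% inhibition of growth. TGI marks complete inhibition of growth.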

Assays:
Assay in all cases: inhibition of tumour cell growth, NCI panel, 48 h
A549 NSCLC = tested on: A549 NSCLC
COLO 205 colon = tested on: COLO 205 colon
HL-60(TB) leukemia = tested on: HL-60(TB) leukemia
KM12 colon = tested on: KM12 colon
NCI/ADR-RES ovarian = tested on: NCI/ADR-RES ovarian
OVCAR-4 ovarian = tested on: OVCAR-4 ovarian
RXF 393 renal = tested on: RXF 393 renal
SF-295 CNS = tested on: SF-295 CNS
SN12C renal = tested on: SN12C renal
SR leukemia = tested on: SR leukemia

Compound `CCCN(CCC)CCCNCc1cc(I)cc(C)c1O` has a GI50 (A549 NSCLC) of 19.4 µM, a TGI (A549 NSCLC) of 42.4 µM and a GI50 (COLO 205 colon) of 13.8 µM. The TGI (COLO 205 colon) was 29 µM, the GI50 (HL-60(TB) leukemia) was 13.8 µM and the TGI (HL-60(TB) leukemia) was 29.8 µM. The GI50 (KM12 colon) was 15 µM, the TGI (KM12 colon) was 30 µM and the GI50 (NCI/ADR-RES ovarian) was 15.4 µM. It also gave a TGI (NCI/ADR-RES ovarian) of 29.8 µM, a GI50 (OVCAR-4 ovarian) of 17.9 µM and a TGI (OVCAR-4 ovarian) of 37.8 µM. For the same compound, the GI50 (RXF 393 renal) was 9.91 µM, the TGI (RXF 393 renal) was 23.2 µM and the GI50 (SF-295 CNS) was 13.7 µM. For the same compound, the TGI (SF-295 CNS) was 27 µM, the GI50 (SN12C renal) was 28.7 µM and the TGI (SN12C renal) was over 100 µM. It also gave a GI50 (SR leukemia) of 7.18 µM and a TGI (SR leukemia) of 21.2 µM.

In the case of `Cc1ccc(C(=O)N(CCCN)[C@@H](c2nc3cc(Cl)ccc3c(=O)n2Cc2ccccc2)C(C)C)cc1`, the GI50 (A549 NSCLC) is reported as under 0.01 µM, the TGI (A549 NSCLC) is reported as 1.4 µM and 1.71 µM and the GI50 (COLO 205 colon) is reported as under 0.01 µM. For the same compound, the TGI (COLO 205 colon) was 1.1 µM, the GI50 (HL-60(TB) leukemia) was under 0.01 µM and the TGI (HL-60(TB) leukemia) was 0.482 µM. The GI50 (KM12 colon) was under 0.01 µM, the TGI (KM12 colon) was 1.29 µM and 1.44 µM and the GI50 (NCI/ADR-RES ovarian) was 0.0481 µM and 0.0406 µM. For the same compound, the TGI (NCI/ADR-RES ovarian) was 0.307 µM and 0.481 µM, the GI50 (OVCAR-4 ovarian) was 1.28 µM and 1.13 µM and the TGI (OVCAR-4 ovarian) was 3.54 µM and 2.46 µM. The GI50 (RXF 393 renal) was under 0.01 µM, the GI50 (SF-295 CNS) was under 0.01 µM and the GI50 (SN12C renal) was under 0.01 µM. The TGI (SN12C renal) was 2.28 µM and 1.83 µM, the GI50 (SR leukemia) was under 0.01 µM and the TGI (SR leukemia) was 1.63 µM and 1.44 µM.

In the case of `CN1CCc2cc3c(cc2C1O)OCO3` (centres undefined), the GI50 (A549 NSCLC) is reported as 15.9 µM and > 100 µM, the TGI (A549 NSCLC) is reported as 31.6 µM and > 100 µM and the GI50 (COLO 205 colon) is reported as 13.5 µM and > 100 µM. The TGI (COLO 205 colon) was 31.8 µM and > 100 µM, the GI50 (HL-60(TB) leukemia) was 28.8 µM and > 100 µM and the TGI (HL-60(TB) leukemia) was 69.9 µM and > 100 µM. For the same compound, the TGI (KM12 colon) was 22.5 µM and > 100 µM, the GI50 (NCI/ADR-RES ovarian) was 23.5 µM and > 100 µM and the TGI (NCI/ADR-RES ovarian) was 59.5 µM and > 100 µM. For the same compound, the TGI (OVCAR-4 ovarian) was 13.7 µM and > 100 µM, the GI50 (RXF 393 renal) was 17.9 µM and > 100 µM and the TGI (RXF 393 renal) was 35.2 µM and > 100 µM. For the same compound, the GI50 (SF-295 CNS) was 26.7 µM and > 100 µM, the TGI (SF-295 CNS) was over 100 µM and the GI50 (SN12C renal) was 20.4 µM and > 100 µM. The TGI (SN12C renal) was 41.4 µM and > 100 µM and the TGI (SR leukemia) was over 100 µM.

`CC(C)[C@](O)(c1ccc2cc(OC(F)F)c(OC(F)F)cc2c1)c1cn[nH]n1` was tested, and the GI50 (A549 NSCLC) was 23.5 µM and 19.5 µM, the TGI (A549 NSCLC) was 59.7 µM and 47.6 µM and the GI50 (COLO 205 colon) was 17 µM and 21.5 µM. The TGI (COLO 205 colon) was 33.9 µM and 43.2 µM, the GI50 (HL-60(TB) leukemia) was 26.8 µM and 25 µM and the TGI (HL-60(TB) leukemia) was 68.5 µM and 75.7 µM. The GI50 (KM12 colon) was 20.3 µM and 15.2 µM, the TGI (KM12 colon) was 41.7 µM and 31.2 µM and the GI50 (NCI/ADR-RES ovarian) was 20.1 µM and 21.5 µM. The TGI (NCI/ADR-RES ovarian) was 52.8 µM and 53.5 µM, the GI50 (OVCAR-4 ovarian) was 21.9 µM and 15 µM and the TGI (OVCAR-4 ovarian) was > 100 µM and 54.4 µM. For the same compound, the GI50 (RXF 393 renal) was 15 µM and 14.4 µM, the TGI (RXF 393 renal) was 29.1 µM and 28.3 µM and the GI50 (SF-295 CNS) was 15.8 µM and 14 µM. The TGI (SF-295 CNS) was 33.4 µM and 29 µM, the GI50 (SN12C renal) was 19.2 µM and 15.6 µM and the TGI (SN12C renal) was 36.8 µM and 32.2 µM. For the same compound, the GI50 (SR leukemia) was 24.7 µM and 12.1 µM and the TGI (SR leukemia) was 56.7 µM and 44.9 µM.

`Cc1ccc(NCCCN2CCN(CCCNc3ccc(C)c4sc5ccccc5c(=O)c34)CC2)c2c(=O)c3ccccc3sc12` showed a TGI (A549 NSCLC) of over 100 µM, a TGI (COLO 205 colon) of over 100 µM and a TGI (HL-60(TB) leukemia) of over 100 µM. For the same compound, the TGI (KM12 colon) was over 100 µM, the TGI (NCI/ADR-RES ovarian) was over 100 µM and the TGI (OVCAR-4 ovarian) was over 100 µM. The TGI (RXF 393 renal) was over 100 µM, the TGI (SF-295 CNS) was over 100 µM and the TGI (SN12C renal) was over 100 µM. For the same compound, the TGI (SR leukemia) was over 100 µM.

Compound `Cc1c2cnccc2c(C)c2c1c1cc(C3OCCCO3)ccc1n2C` has a GI50 (A549 NSCLC) of 0.461 µM, a TGI (A549 NSCLC) of 2.5 µM and a GI50 (COLO 205 colon) of 0.357 µM. The TGI (COLO 205 colon) was 1.75 µM, the GI50 (HL-60(TB) leukemia) was 0.375 µM and the TGI (HL-60(TB) leukemia) was 1.77 µM. For the same compound, the GI50 (KM12 colon) was 0.5 µM, the TGI (KM12 colon) was 3.77 µM and the GI50 (NCI/ADR-RES ovarian) was 0.157 µM. It also gave a TGI (NCI/ADR-RES ovarian) of 1.83 µM, a GI50 (OVCAR-4 ovarian) of 0.264 µM and a TGI (OVCAR-4 ovarian) of 1.12 µM. The GI50 (RXF 393 renal) was 0.172 µM, the TGI (RXF 393 renal) was 0.921 µM and the GI50 (SF-295 CNS) was 0.348 µM. For the same compound, the TGI (SF-295 CNS) was 1.9 µM, the GI50 (SN12C renal) was 0.192 µM and the TGI (SN12C renal) was 1.3 µM. For the same compound, the GI50 (SR leukemia) was 0.0686 µM and the TGI (SR leukemia) was 1.43 µM.

`CCSc1nnc2c(-c3ccccc3)n[nH]c2n1` was tested, and the TGI (A549 NSCLC) was over 100 µM, the TGI (COLO 205 colon) was over 100 µM and the TGI (HL-60(TB) leukemia) was over 100 µM. For the same compound, the TGI (KM12 colon) was over 100 µM, the TGI (NCI/ADR-RES ovarian) was over 100 µM and the TGI (OVCAR-4 ovarian) was over 100 µM. It also gave a TGI (RXF 393 renal) of over 100 µM, a TGI (SF-295 CNS) of over 100 µM and a TGI (SR leukemia) of over 100 µM.
